The record followed here is US8263631B2, “Anti-cancer pharmaceutical compositions and methods for treating patients with cancer” (Daiichi Sankyo Company, Limited, priority 2006, dated 2012).

The test system of test [1] is human kidney cancer line SN12-PM6. In words: In vivo anti-tumor activity against human kidney cancer (SN12-PM6 tumor-bearing nude mouse). Conditions: 0.1 mL per 10 g orally, once a day, 5 times per week, day 10 to 56. The text has this: In the experiment, human kidney cancer line SN12-PM6 (provided by Professor Seiji Naito of Kyushu University), in which it was confirmed that no mouse pathogenic microorganism was detected by quarantine, was transplanted to a subcutaneous axillary portion of a nude mouse BALB/cA Jcl-nu (CLEA Japan, Inc.), to subculture a tumor. The tumor was cut into small pieces in a size of 5 mm, and transplanted to a right subcutaneous axillary portion of a BALE/cA Jcl-nu mouse by using a troker (CLEA Japan, Inc.). […] Subsequently, distilled water (Otsuka Pharmaceutical Factory, Inc.) was added so that the final concentrations of ethanol and cremophor became each 12.5%. […] Twice a week, the major axis and the minor axis of the transplanted tumor were measured using digital micrometer calipers (MAX-CAL MAX-15: Nihon Sokutei Kougu Kabusikikaisha), and tumor proliferation inhibitory activity was obtained from the following calculation formula and expressed as the tumor volume inhibition rate. […]
Evaluation of anti-tumor activity for each of the drug administration group was determined by the tumor volume inhibition rate. In addition, a statistical difference test was determined by conducting Students' t test with respect to the tumor volumes of the drug non-administration control group and the drug administration group 59 days after transplantation.

The subject of test [2] is human colon cancer line WiDr. In words: In vivo anti-tumor activity against human colon cancer cells (WiDr tumor-bearing nude mouse). Conditions: once a day, 5 times per week. An excerpt:
In the experiment, human colon cancer line WiDr (purchased from American Type Culture Collection), in which it was confirmed that no mouse pathogenic microorganism was detected by quarantine, was transplanted to a subcutaneous axillary portion of a nude mouse BALB/cA Jcl-nu (CLEA Japan, Inc.), to subculture a tumor. The tumor was cut into small pieces of 5 mm size, and was transplanted to a right subcutaneous axillary portion of a BALB/cA Jcl-nu mouse by using a troker (CLEA Japan, Inc.). The required amounts of Compounds X and Y were each weighed and were dissolved in N,N-dimethylacetamide (DMA: Wako Pure Chemical Industries, Ltd.), and 5% Emulphor 620 (GAF Corporation)-saline (Otsuka Pharmaceutical Co., Ltd.) was then added to the mixtures in small amounts, so that the concentrations of the compounds were each adjusted to 0.2, 1 or 5 mg/mL. Here, DMA was made to have a final concentration of 2.5%. […] Twice a week, the major axis and the minor axis of the transplanted tumor were measured using digital micrometer calipers (MAX-CAL MAX-15: Nihon Sokutei Kougu Kabusiki Kaisha), and tumor proliferation inhibitory activity was obtained from the following calculation formula and expressed as the tumor volume inhibition rate. Average tumor volume in each test group (mm^3)=½×(minor axis)^2 (mm^2)×(major axis) (mm) Tumor volume inhibition rate (%)={1−(average tumor volume of drug administration group/average tumor volume of drug non-administration group)}×100
Evaluation of anti-tumor activity of each of the drug administration groups was determined by the tumor volume inhibition rate. In addition, a statistical difference test was determined by conducting Students' t test with respect to the tumor the volume of drug non-administration control group and the drug administration group 38 days after transplantation.

The subject of test [3] is MKN74, MKN28, ZR-75-1, SBC-1, AsPC-1, DU-145, ACHN, D341 Med, A-204, RD-ES, SW872, U266 cancer cell lines. In words: Evaluation of cancer cell proliferation inhibitory activity (sulforhodamine B staining, absorbance A490). Conditions: 0.1, 1 or 10 μM (AsPC-1: 0.05, 0.5 or 5 μM), 7 days (U266: 4 days); all cancer cell lines, FIGS. 1-3. Type of test: cell-based, human. An excerpt:
Human gastric cancer cell line (MKN74, MKN28) purchased from Immuno-Biological Laboratories Co., Ltd., human breast cancer cell line (ZR-75-1), small-cell lung cancer line (SBC-1), pancreatic cancer cell line (AsPC-1), prostate cancer cell line (DU-145), kidney cancer cell line (ACHN), medulloblastoma line (D341 Med), human sarcoma cell line (rhabdomyosarcoma line A-204, Ewing's sarcoma line RD-ES, liposarcoma line SW872) and multiple myeloma line (U266) that were purchased from […] were used in the test. […]
To the control group was added only DMSO so that its concentration became 0.1%. […] 10 mM Tris was added at […] to each well in which cancer cells were immobilized and stained, and absorbance A490 of each well was measured using MICROPLATE READER Model 3550 (Bio-Rad Laboratories, Inc.). […]
In each of the graphs, the longitudinal axis represents the absorbance [%], and the horizontal axis represents the concentration of Compound X [μM].
(In general: Sulforhodamine B stains cellular protein and so reports cell mass.)

For test [4], the system named is human leukemia cell line HL-60. Nature of the test: Cell proliferation inhibitory activity against human leukemia cell (Cell Titer 96). Type of test: cell-based. Conditions: 5 days.
Test [5] concerns human leukemia cell line THP-1. The description is as above. The test is classed as cell-based. Conditions: 5 days.
For test [6], the system named is human non-small-cell lung cancer line A549. Nature of the test: In vitro cell proliferation inhibitory activity, combination with VEGFR and Raf kinase inhibitor. The test is classed as cell-based. The following applies: Compound X 10 μM alone, A549, 6 days. As for the experimental part: Human non-small-cell lung cancer line A549 cells were inoculated on a 96-well plate at 5×10^2 cells/well, and at the same time, agents of various concentrations dissolved in DMSO were added so that the concentration of DMSO became 0.1%. […] After addition of the drugs, the cells were cultivated in the presence of 5% carbon dioxide at 37° C. for 6 days. Then, Cell Titer 96 Aqueous One Solution Reagent (Promega Corp.) was added at 40 μl/well each, and then absorbance A490 of each well was measured using MICROPLATE READER (Bio-Rad Laboratories, Inc.).

For test [7] the test system is unchanged. In words: In vitro cell proliferation inhibitory activity, combination with EGFR inhibitor. Conditions: Compound X 10 μM alone, A549, 7 days.
Experimental: Human non-small-cell lung cancer line A549 cells (purchased from American Tissue Culture Collection) were cultured using 10% fetal bovine serum (Hyclone Laboratories, Inc.)-RPMI (Invitrogen Corporation). A549 cells were inoculated on a 96-well plate at 5×10^2 cells/well, and at the same time, the agents of various concentrations dissolved in DMSO were added so that the concentration of DMSO became 0.1%. […] After the addition of the drugs, cells were cultivated in the presence of 5% carbon dioxide at 37° C. for 7 days. Then, Cell Titer 96 Aqueous One Solution Reagent (Promega Corp.) was added at 40 μl/well each, followed by 2 hours of cultivation. Absorbance A490 of each well was measured using MICROPLATE READER (Bio-Rad Laboratories, Inc.).
Test [8] has the same test system. In words: In vivo anti-tumor activity against non-small-cell lung cancer (A549 tumor-bearing nude mouse). The following applies: Compound X alone, 1 mg/mL, 0.1 mL per 10 g orally, once a day, 5 times per week, day 14 to 60.
Text: In the experiment, human non-small-cell lung cancer line A549 (purchased from American Type Culture Collection), in which it was confirmed that no mouse pathogenic microorganism was detected by quarantine, was transplanted to a subcutaneous axillary portion of a nude mouse BALB/cA Jcl-nu (CLEA Japan, Inc.), to subculture a tumor. The tumor was cut into small pieces of 5 mm size, and transplanted to a right subcutaneous axillary portion of a BALB/cA Jcl-nu mouse by using a troker (CLEA Japan, Inc.). […] Twice a week, the major axis and the minor axis of the transplanted tumor were measured using digital micrometer calipers (MAX-CAL MAX-15: Nihon Sokutei Kougu Kabusiki Kaisha), and tumor proliferation inhibitory activity was obtained from the following calculation formula and expressed as the tumor volume inhibition rate. […]
Evaluation of anti-tumor activity for each of the drug administration groups was determined by the tumor volume inhibition rate. In addition, a statistical difference test was determined by conducting Students' t test with respect to tumor volume of the drug non-administration control group and the drug administration group 63 days after transplantation.
Where [9] appears, read: 2 mg/kg orally, determined on Day 35, Exp. 2.
[10] abbreviates: 10 mg/kg orally, determined on Day 35, Exp. 2.
Where [11] appears, read: 50 mg/kg orally, determined on Day 35, Exp. 1.
The mark [12] stands for this setting: 50 mg/kg orally, determined on Day 35, Exp. 2.

Marks after values point to notes of the source that are not given here.

For the molecule `CNC(=O)c1cc(Oc2ccc(NC(=O)Nc3ccc(Cl)c(C(F)(F)F)c3)cc2)ccn1` [Sorafenib, sorafenib, reference compound], in test [1] (sorafenib alone, 10 mg/mL), the “Tumor volume inhibition rate” value was determined as 43%.
In the case of `CC(C)Nc1cccc(Oc2ccc3nc(COc4ccc(CC5SC(=O)NC5=O)cc4)n(C)c3c2)c1.Cl.Cl` (centres unmarked) [Compound Y, 5-(4-(6-(3-Isopropylamino-phenoxy)-1-methyl-1H-benzimidazol-2-ylmethoxy)-benzyl)-thiazolidine-2,4-dione.dihydrochloride], the “Tumor volume inhibition rate” value is recorded as 26* % in test [2] (setting [9]), 32* % in test [2] (setting [10]), 35* % in test [2] (setting [11]) and 40* % in test [2] (setting [12]).
As for `Cc1cc(Oc2ccc3nc(COc4ccc(CC5SC(=O)NC5=O)cc4)n(C)c3c2)cc(C)c1N.Cl.Cl` (centres unmarked) [Compound X, 5-(4-(6-(4-Amino-3,5-dimethyl-phenoxy)-1-methyl-1H-benzimidazol-2-ylmethoxy)-benzyl)-thiazolidine-2,4-dione.dihydrochloride], the “cancer cell proliferation inhibitory activity (absorbance % of DMSO control)” value in test [3] is recorded as “significant proliferation inhibitory activity”. The figures for the “HL-60 Proliferation inhibition rate” value in test [4] (Compound X 10 μM), in test [4] (Compound X 25 μM) and in test [4] (Compound X 50 μM) were 23%, 27* % and 45** %, respectively. Besides, the “THP-1 Proliferation inhibition rate” value in test [5] (Compound X 10 μM) was 7%; in test [5] (Compound X 25 μM), 20%; in test [5] (Compound X 50 μM), 48** %. The “Tumor volume inhibition rate” value in test [2] (setting [9]) is 31* %; in test [2] (setting [10]), 35* %; in test [2] (setting [11]), 49* %; in test [2] (setting [12]), 38* %; in test [1] (Compound X alone, 0.3 mg/mL) it was 37%; in test [8], 33%. In addition, the Proliferation inhibition rate in test [6] was determined as 15%. For the same molecule, the “Cell proliferation inhibition rate” value in test [7] was found to be 12%.
